Measurements reported in ChEMBL document CHEMBL1128201, “Selective and potent monoamine oxidase type B inhibitors: 2-substituted 5-aryltetrazole derivatives” (J Med Chem, 1995).

Experiments:
[1] = target: T1, Amine oxidase [flavin-containing] A (Rattus norvegicus, UniProt P21396); test: In vitro inhibitory activity against rat brain Monoamine oxidase A
T1 sequence (P21396 whole entry): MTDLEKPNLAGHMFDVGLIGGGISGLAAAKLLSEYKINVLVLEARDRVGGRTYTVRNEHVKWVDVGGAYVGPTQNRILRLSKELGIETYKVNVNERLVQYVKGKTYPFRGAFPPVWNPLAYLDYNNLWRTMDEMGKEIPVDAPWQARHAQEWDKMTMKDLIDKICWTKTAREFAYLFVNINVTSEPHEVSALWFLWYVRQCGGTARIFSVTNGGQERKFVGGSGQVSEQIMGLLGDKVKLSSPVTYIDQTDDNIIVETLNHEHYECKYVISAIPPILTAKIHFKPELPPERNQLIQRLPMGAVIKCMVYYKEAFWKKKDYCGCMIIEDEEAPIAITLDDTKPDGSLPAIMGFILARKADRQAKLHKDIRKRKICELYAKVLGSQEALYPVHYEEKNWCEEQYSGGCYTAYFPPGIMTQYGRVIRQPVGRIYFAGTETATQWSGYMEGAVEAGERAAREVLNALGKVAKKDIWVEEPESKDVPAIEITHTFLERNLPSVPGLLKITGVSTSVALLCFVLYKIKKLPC

[2] = target: T2, Amine oxidase [flavin-containing] B (Rattus norvegicus, UniProt P19643); test: In vitro inhibitory activity against rat brain Monoamine oxidase B
T2 sequence (P19643 whole entry): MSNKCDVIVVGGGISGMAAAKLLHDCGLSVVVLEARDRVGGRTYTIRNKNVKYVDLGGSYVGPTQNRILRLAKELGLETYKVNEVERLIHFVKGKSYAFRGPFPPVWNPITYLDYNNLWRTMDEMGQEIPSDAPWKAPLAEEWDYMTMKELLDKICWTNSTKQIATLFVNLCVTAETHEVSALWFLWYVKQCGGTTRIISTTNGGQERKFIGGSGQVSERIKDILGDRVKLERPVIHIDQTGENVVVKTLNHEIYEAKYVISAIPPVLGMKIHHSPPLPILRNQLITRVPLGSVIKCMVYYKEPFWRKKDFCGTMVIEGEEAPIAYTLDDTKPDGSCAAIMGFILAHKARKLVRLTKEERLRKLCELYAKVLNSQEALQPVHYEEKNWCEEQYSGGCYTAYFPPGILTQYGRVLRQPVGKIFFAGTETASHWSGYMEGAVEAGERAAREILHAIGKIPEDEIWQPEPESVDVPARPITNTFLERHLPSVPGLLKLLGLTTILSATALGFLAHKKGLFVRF

[3] = target: T1, Amine oxidase [flavin-containing] A; test: Ex vivo inhibitory activity against rat brain monoamine oxidase (MAO) type A at a dose of 5 mg/kg administered orally at 0.5 hr; type: functional, organism-based; set-up: dose 5 mg/kg, route oral; details: po
[4] = target: T1, Amine oxidase [flavin-containing] A; test: (§1) Ex vivo inhibitory activity against rat brain monoamine oxidase (MAO) type A at a dose of 5 mg/kg administered orally at 1 hr; type: functional, organism-based; set-up: dose 5 mg/kg, route oral; details: po
[5] = target: T1, Amine oxidase [flavin-containing] A; test: Ex vivo inhibitory activity against rat brain monoamine oxidase (MAO) type A at a dose of 5 mg/kg administered orally at 4 hr; type: functional, organism-based; set-up: dose 5 mg/kg, route oral; details: po
[6] = target: T2, Amine oxidase [flavin-containing] B; test: (§2) Compound was evaluated for inhibitory activity against monoamine oxidase (MAO) type B by reversibility test after dialysis at a concentration of 0.1 uM; type: functional; details: read-out: Control
[7] = target: T2, Amine oxidase [flavin-containing] B; test: (§3) Compound was evaluated for inhibitory activity against monoamine oxidase (MAO) type B by reversibility test before dialysis at a concentration of 0.1 uM; type: functional; details: read-out: Control
[8] = target: T2, Amine oxidase [flavin-containing] B; test: Ex vivo inhibitory activity against rat brain monoamine oxidase (MAO) type B at a dose of 5 mg/kg administered orally at 0.5 hr; type: functional, organism-based; set-up: dose 5 mg/kg, route oral; details: po
[9] = target: T2, Amine oxidase [flavin-containing] B; test: (§4) Ex vivo inhibitory activity against rat brain monoamine oxidase (MAO) type B at a dose of 5 mg/kg administered orally at 1 hr; type: functional, organism-based; set-up: dose 5 mg/kg, route oral; details: po
[10] = Selectivity for the B form was estimated by the IC50(MAO A)/IC50(MAO B) ratio.
[11] = target: T2, Amine oxidase [flavin-containing] B; test: Ex vivo inhibitory activity against rat brain monoamine oxidase (MAO) type B at a dose of 5 mg/kg administered orally at 4 hr; type: functional, organism-based; set-up: dose 5 mg/kg, route oral; details: po
[12] = target: T2, Amine oxidase [flavin-containing] B; test: Compound was evaluated for the Inhibition of Monoamine oxidase B
[13] = target: T1, Amine oxidase [flavin-containing] A; test: Ex vivo inhibitory activity against rat brain monoamine oxidase (MAO) type A at a dose of 5 mg/kg administered orally at 24 hr; type: functional, organism-based; set-up: dose 5 mg/kg, route oral; details: po
[14] = target: T2, Amine oxidase [flavin-containing] B; test: Compound was evaluated for inhibitory activity against monoamine oxidase (MAO) type B by reversibility test after dialysis at a concentration of 0.001 uM; details: read-out: Control
[15] = target: T2, Amine oxidase [flavin-containing] B; test: as §2; details: read-out: Control
[16] = target: T2, Amine oxidase [flavin-containing] B; test: Compound was evaluated for inhibitory activity against monoamine oxidase (MAO) type B by reversibility test before dialysis at a concentration of 0.001 uM; type: functional; details: read-out: Control
[17] = target: T2, Amine oxidase [flavin-containing] B; test: as §3; details: read-out: Control
[18] = target: T2, Amine oxidase [flavin-containing] B; test: Ex vivo inhibitory activity against rat brain monoamine oxidase (MAO) type B at a dose of 5 mg/kg administered orally at 24 hr; type: functional, organism-based; set-up: dose 5 mg/kg, route oral; details: po
[19] = target: T1, Amine oxidase [flavin-containing] A; test: Ex vivo inhibitory activity against rat brain monoamine oxidase (MAO) type A at a dose of 5 mg/kg administered orally at 8 hr; type: functional, organism-based; set-up: dose 5 mg/kg, route oral; details: po
[20] = target: T2, Amine oxidase [flavin-containing] B; test: as §4; details: po
[21] = target: T1, Amine oxidase [flavin-containing] A; test: as §1; type: organism-based; set-up: dose 5 mg/kg, route oral; details: po
[22] = target: T2, Amine oxidase [flavin-containing] B; test: Inhibitory activity against monoamine oxidase (MAO) type B by reversibility test after dialysis at a concentration of 0.001 uM; details: read-out: Control
[23] = target: T2, Amine oxidase [flavin-containing] B; test: Inhibitory activity against monoamine oxidase (MAO) type B by reversibility test after dialysis at a concentration of 0.1 uM; details: read-out: Control
[24] = target: T2, Amine oxidase [flavin-containing] B; test: Inhibitory activity against monoamine oxidase (MAO) type B by reversibility test before dialysis at a concentration of 0.001 uM; details: read-out: Control
[25] = target: T2, Amine oxidase [flavin-containing] B; test: Inhibitory activity against monoamine oxidase (MAO) type B by reversibility test before dialysis at a concentration of 0.1 uM; details: read-out: Control

Cc1ccc(COc2ccc(-c3nnn(CCO)n3)cc2)cc1
IC50 [1]: > 100 µM

Cc1ccc(COc2ccc(-c3nnn(CCC#N)n3)cc2)cc1
IC50 [1]: > 100 µM

N#CCCCCn1nnc(-c2ccc(-c3ccccc3)cc2)n1
IC50 [2]: 6 µM
IC50 [1]: 26 µM

Cc1ccccc1COc1ccc(-c2nnn(CCC#N)n2)cc1
IC50 [1]: > 100 µM

OCCn1nnc(-c2ccccc2)n1
IC50 [2]: 89 µM
IC50 [1]: > 100 µM

OCCn1nnc(-c2ccc(OCc3ccccc3)cc2)n1
inhibition at 5 mg/kg [3]: 5%
inhibition at 5 mg/kg [4]: 4%
inhibition at 5 mg/kg [5]: 4%
remaining activity at 0.1 µM [6]: 107%
remaining activity at 0.1 µM [7]: 19%
IC50 [2]: 0.03 µM
inhibition at 5 mg/kg [8]: 84%
inhibition at 5 mg/kg [9]: 84%
IC50 [1]: 64 µM
Selectivity [10]: 2100
inhibition at 5 mg/kg [11]: 63%

N#CCCn1nnc(-c2ccc([N+](=O)[O-])cc2)n1
IC50 [2]: 13.4 µM
IC50 [1]: 18 µM

OCCn1nnc(-c2ccc(OCc3cccc(Cl)c3)cc2)n1
inhibition at 5 mg/kg [3]: 15%
inhibition at 5 mg/kg [4]: 15%
inhibition at 5 mg/kg [5]: 14%
remaining activity at 0.1 µM [6]: 109%
remaining activity at 0.1 µM [7]: 25%
IC50 [2]: 0.2 µM
inhibition at 5 mg/kg [8]: 69%
inhibition at 5 mg/kg [9]: 71%
IC50 [1]: 58 µM
Selectivity [10]: 290
inhibition at 5 mg/kg [11]: 55%

OCCn1nnc(-c2ccc(OCc3ccc(Cl)cc3)cc2)n1
IC50 [2]: 0.32 µM

N#CCCn1nnc(-c2ccc(Cl)cc2)n1
IC50 [2]: 3.6 µM
IC50 [1]: 6.5 µM

N#CCCn1nc(-c2ccc(OCc3ccccc3)cc2)oc1=O
IC50 [12]: 0.0046 µM

Cc1cccc(COc2ccc(-c3nnn(CCC#N)n3)cc2)c1
IC50 [1]: > 100 µM

COc1cccc(COc2ccc(-c3nnn(CCC#N)n3)cc2)c1
IC50 [1]: > 100 µM

OCCn1nnc(-c2ccc(Cl)cc2)n1
IC50 [2]: 38 µM
IC50 [1]: 66 µM

Cc1ccccc1COc1ccc(-c2nnn(CCO)n2)cc1
IC50 [1]: > 100 µM
Selectivity [10]: > 350

OCCn1nnc(-c2ccc(OCc3ccc(F)cc3)cc2)n1
IC50 [1]: > 100 µM

N#CCCn1nnc(-c2ccc(OCc3ccccc3I)cc2)n1
IC50 [2]: > 270 µM
IC50 [1]: > 100 µM

COc1ccc(COc2ccc(-c3nnn(CCO)n3)cc2)cc1
IC50 [1]: > 100 µM

COc1ccc(-c2nnn(CCO)n2)cc1
IC50 [2]: > 100 µM
IC50 [1]: 46 µM

N#CCCn1nnc(-c2ccc(OCc3ccccc3Cl)cc2)n1
IC50 [2]: 0.03 µM
IC50 [1]: > 100 µM

N#CCCn1nnc(-c2ccncc2)n1
IC50 [2]: 30 µM
IC50 [1]: > 100 µM

OCCn1nnc(-c2ccc(OCc3ccccc3I)cc2)n1
IC50 [2]: 0.35 µM
IC50 [1]: > 100 µM

N#CCCn1nnc(-c2ccccc2)n1
IC50 [2]: > 100 µM
IC50 [1]: 54 µM

OCCCn1nnc(-c2ccc(-c3ccccc3)cc2)n1
IC50 [2]: 1.36 µM
IC50 [1]: 4.6 µM

Cc1cccc(COc2ccc(-c3nnn(CCO)n3)cc2)c1
IC50 [1]: > 100 µM

OCCCCn1nnc(-c2ccc(-c3ccccc3)cc2)n1
IC50 [2]: 9.4 µM
IC50 [1]: 13 µM

N#CCCn1nnc(-c2ccc(OCc3ccc(Cl)cc3)cc2)n1
IC50 [2]: 0.08 µM
IC50 [1]: > 100 µM

N#CCCn1nnc(-c2ccc(OCc3cccc(Cl)c3)cc2)n1
inhibition at 5 mg/kg [3]: 13%
inhibition at 5 mg/kg [4]: 18%
inhibition at 5 mg/kg [13]: 1%
inhibition at 5 mg/kg [5]: 8%
remaining activity at 0.001 µM [14]: 95%
remaining activity at 0.1 µM [15]: 87%
remaining activity at 0.001 µM [16]: 69%
remaining activity at 0.1 µM [17]: 15%
IC50 [2]: 0.1 µM
inhibition at 5 mg/kg [8]: 72%
inhibition at 5 mg/kg [9]: 81%
inhibition at 5 mg/kg [18]: 9%
IC50 [1]: > 100 µM
Selectivity [10]: > 1000
inhibition at 5 mg/kg [11]: 63%

N#CCCn1nnc(-c2ccc(OCc3ccc(F)cc3)cc2)n1
IC50 [1]: > 100 µM

COc1ccc(COc2ccc(-c3nnn(CCC#N)n3)cc2)cc1
IC50 [1]: > 100 µM

C#CCN(C)[C@H](C)Cc1ccccc1 [SELEGILINE]
inhibition at 5 mg/kg [13]: 2%
inhibition at 5 mg/kg [19]: 5%
inhibition at 5 mg/kg [20]: 83%
inhibition at 5 mg/kg [18]: 81%
inhibition at 5 mg/kg [21]: 3%

N#CCCn1nnc(-c2ccc(-c3ccccc3)cc2)n1
IC50 [2]: 0.84 µM

COc1ccc(-c2nnn(CCC#N)n2)cc1
IC50 [2]: 37 µM
IC50 [1]: 16.6 µM

N#CCCn1nnc(-c2ccc(OCc3ccccc3)cc2)n1
inhibition at 5 mg/kg [3]: 6%
inhibition at 5 mg/kg [4]: 12%
inhibition at 5 mg/kg [13]: 2%
inhibition at 5 mg/kg [5]: 0%
remaining activity at 0.001 µM [22]: 85%
remaining activity at 0.1 µM [23]: 54%
remaining activity at 0.001 µM [24]: 65%
remaining activity at 0.1 µM [25]: 12%
IC50 [2]: 0.002 µM
inhibition at 5 mg/kg [8]: 76%
inhibition at 5 mg/kg [9]: 74%
inhibition at 5 mg/kg [18]: 24%
Selectivity [10]: 37000
inhibition at 5 mg/kg [11]: 69%

COc1cccc(COc2ccc(-c3nnn(CCO)n3)cc2)c1
IC50 [1]: 80 µM

OCCn1nnc(-c2ccc(OCc3ccccc3Cl)cc2)n1
IC50 [2]: 9 µM

N#CCCn1nc(-c2ccc(OCc3ccccc3)cc2)oc1=S
IC50 [12]: 0.0046 µM

O=[N+]([O-])c1ccc(-c2nnn(CCO)n2)cc1
IC50 [2]: > 100 µM
IC50 [1]: > 100 µM

N#CCCCCCCn1nnc(-c2ccc(-c3ccccc3)cc2)n1
Selectivity [10]: 8.5

OCCn1nnc(-c2ccncc2)n1
IC50 [2]: > 100 µM
IC50 [1]: > 100 µM

COc1ccc2c3c([nH]c2c1)C(C)=NCC3 [HARMALINE]
IC50 [2]: 150 µM
IC50 [1]: 0.012 µM
Selectivity [10]: 5

OCCn1nnc(-c2ccc(-c3ccccc3)cc2)n1
IC50 [2]: 0.96 µM
IC50 [1]: 11 µM
